Data as given in patent publication US20120115774A1, “ANTIMICROBIAL CATIONIC LIPO-BETA-PEPTIDES” (UNIVERSITY OF MANITOBA, priority 2009, published 2012).
≈ marks a conversion by molar mass, not a printed value. Read-outs that look alike come from different tables or passages of the source.

Assays:
[1] = system: S. aureus ATCC 29213; assay type: cell-based, Staphylococcus aureus
Description: (§1) Antibacterial activity against Gram positive and Gram negative microorganisms was investigated via broth macrodilution tests using CLSI methodology (Zhanel et al., 2008). Stock solutions of lipopeptide antibiotics in water were brought to a standard 512 μg/mL, with only βC12-KLLK and βC16-KAAK requiring a minute amount of DMSO. Organisms were subcultured and isolated on blood agar, suspended in 3 mL of Mueller-Hinton broth at the turbidity of a […], and diluted to approximately 10^5 CFU/mL before introduction into tubes containing serially diluted lipopeptide antibiotic in Mueller-Hinton broth. Activity testing against S. pneumoniae used broth supplemented with laked horse blood to give 5% horse blood in experimental tubes. The turbidity resulting from lipopeptide solution in broth required the creation of control tubes lacking microbes serving as turbidity controls. All tubes were incubated overnight for 16-20 h at 37° C. Colony counts of diluted 10^5 CFU/mL solution of microorganism confirmed the validity of the trial with colony counts expected in the 10^5 CFU/mL range and also incubated overnight in a CO2 incubator at 37° C. and 5% CO2.

[2] = system: S. epidermidis ATCC 14990; assay type: cell-based, Staphylococcus epidermidis
Description: as §1

[3] = system: E. coli (Amikacin MIC 32 μg/mL) CAN-ICU 63074; assay type: cell-based
Description: as §1

[4] = system: E. coli (Gentamicin resistant-Gent R) CAN-ICU 61714; assay type: cell-based
Description: as §1

[5] = system: E. coli ATCC 25922; assay type: cell-based
Description: as §1

[6] = system: methicillin-resistant Staphylococcus aureus (MRSA) ATCC 33592; assay type: cell-based
Description: as §1

[7] = system: methicillin-resistant Staphylococcus epidermidis (MRSE) CAN-ICU 61589; assay type: cell-based
Description: as §1

[8] = system: E. faecalis ATCC 29212; assay type: cell-based, Enterococcus faecalis
Description: as §1

[9] = system: E. faecium ATCC 27270; assay type: cell-based, Enterococcus faecium
Description: as §1

[10] = system: S. pneumoniae ATCC 49619; assay type: cell-based, Streptococcus pneumoniae
Description: as §1

[11] = system: P. aeruginosa (Gent-R) CAN-ICU 62308; assay type: cell-based, Pseudomonas aeruginosa
Description: as §1

[12] = system: P. aeruginosa ATCC 27853; assay type: cell-based, Pseudomonas aeruginosa
Description: as §1

[13] = system: S. maltophilia CAN-ICU 62584; assay type: cell-based, Stenotrophomonas maltophilia
Description: as §1

[14] = system: A. baumannii CAN-ICU 63169; assay type: cell-based, Acinetobacter baumannii
Description: as §1

[15] = system: E. coli (Amikacin MIC 32 μg/mL) CAN-ICU 63074; settings: strain description, clinical isolate of CAN-ICU study; cited from earlier work
[16] = system: methicillin-resistant Staphylococcus epidermidis (MRSE) CAN-ICU 61589; settings: strain description, clinical isolate of CAN-ICU study; cited from earlier work
[17] = system: K. pneumoniae ATCC 13883; assay type: cell-based, Klebsiella pneumoniae; settings: Mueller-Hinton broth, 16-20 h at 37° C.
Description: as §1

[18] = Amikacin MIC 32 μg/mL) CAN-ICU 63074
[19] = Gentamicin resistant-Gent R) CAN-ICU 61714
[20] = methicillin-resistant CAN-ICU 61589
[21] = Mueller-Hinton broth, 16-20 h at 37° C.

| Molecule | MIC, S. aureus ATCC29213 ([1]; ATCC 29213) [µg/mL] | MIC, S. epidermidis ATCC14990 ([2]; ATCC 14990) [µg/mL] | MIC, E. coli CAN-ICU 63074 [3, 18] [µg/mL] | MIC, E. coli CAN-ICU 61714 [4, 19] [µg/mL] | MIC, E. coli ATCC25922 ([5]; ATCC 25922) [µg/mL] | MIC, MRSA ATCC33592 ([6]; ATCC 33592) [µg/mL] | MIC, MRSE CAN-ICU 61589 [7, 20] [µg/mL] | MIC, E. faecalis ATCC29212 [8] [µg/mL] | MIC, E. facium ATCC27270 [9] [µg/mL] | MIC, S. pneumoniae ATCC49619 ([10]; ATCC 49619) [µg/mL] | MIC, P. aeruginosa CAN-ICU 62308 ([11]; Gent-R) CAN-ICU 62308) [µg/mL] | MIC, P. aeruginosa ATCC27853 ([12]; ATCC 27853) [µg/mL] | MIC, S. maltophilia CAN-ICU 62584 ([13]; CAN-ICU 62584) [µg/mL] | MIC, A. baumannii CAN-ICU 63169 ([14]; CAN-ICU 63169) [µg/mL] | also measured |
| --- | --- | --- | --- | --- | --- | --- | --- | --- | --- | --- | --- | --- | --- | --- | --- |
| CCCCCCCCCCCC(=O)N[C@@H](CCCCN)CC(=O)N[C@H](CC(=O)N[C@H](CC(=O)N[C@@H](CCCCN)CC(N)=O)CC(C)C)CC(C)C [(β)C12-KLLK] | 32 (≈ 43.4 µM) | 16 (≈ 21.7 µM) | 64 (≈ 86.7 µM) | 64 (≈ 86.7 µM) | 64 (≈ 86.7 µM) | 32 (≈ 43.4 µM) | 32 (≈ 43.4 µM) | 64 (≈ 86.7 µM) | 32 (≈ 43.4 µM) | 128 (≈ 173 µM) | 128 (≈ 173 µM) | 128 (≈ 173 µM) | 256 (≈ 347 µM) | >128 |  |
| CCCCCCCCCCCCCCCC(=O)N[C@@H](CCCCN)CC(=O)N[C@@H](CCCCN)CC(=O)N[C@@H](CCCCN)CC(=O)N[C@@H](CCCCN)CC(N)=O [(β)C16-KKKK] | 16 (≈ 19.4 µM) | 4 (≈ 4.85 µM) | 32 (≈ 38.8 µM) | 32 (≈ 38.8 µM) | 16 (≈ 19.4 µM) | 16 (≈ 19.4 µM) | 4 (≈ 4.85 µM) | 32 (≈ 38.8 µM) | 16 (≈ 19.4 µM) | 128 (≈ 155 µM) | 128 (≈ 155 µM) | 64 (≈ 77.6 µM) | 256 (≈ 311 µM) | 256 (≈ 311 µM) |  |
| NCC[C@H](O)C(=O)N[C@@H]1C[C@H](N)[C@@H](O[C@H]2O[C@H](CN)[C@@H](O)[C@H](O)[C@H]2O)[C@H](O)[C@H]1O[C@H]1O[C@H](CO)[C@@H](O)[C@H](N)[C@H]1O [Amikacin] |  |  |  |  |  |  |  |  |  |  |  |  |  |  | Amikacin MIC of E. coli CAN-ICU 63074 [15]: 32 µg/mL |
| CCCCCCCCCCCCCCCC(=O)N[C@@H](CCCCN)CC(=O)N[C@@H](C)CC(=O)N[C@@H](C)CC(=O)N[C@@H](CCCCN)CC(N)=O [(β)C16-KAAK] | 64 (≈ 90.1 µM) | 8 (≈ 11.3 µM) | 64 (≈ 90.1 µM) | 64 (≈ 90.1 µM) | 64 (≈ 90.1 µM) | 32 (≈ 45.1 µM) | 16 (≈ 22.5 µM) | 32 (≈ 45.1 µM) | 32 (≈ 45.1 µM) | >64 | 128 (≈ 180 µM) | 256 (≈ 361 µM) | >128 | 256 (≈ 361 µM) |  |
| CCCCCCCCCCCCCCCC(=O)N[C@@H](CCCCN)CC(=O)NCCC(=O)NCCC(=O)N[C@@H](CCCCN)CC(N)=O [(β)C16-KGGK] | 16 (≈ 23.5 µM) | 8 (≈ 11.7 µM) | 32 (≈ 46.9 µM) | 32 (≈ 46.9 µM) | 32 (≈ 46.9 µM) | 32 (≈ 46.9 µM) | 16 (≈ 23.5 µM) | 32 (≈ 46.9 µM) | 32 (≈ 46.9 µM) | 128 (≈ 188 µM) | >64 | 64 (≈ 93.8 µM) | 256 (≈ 375 µM) | 128 (≈ 188 µM) |  |
| Cc1nnc(SCC2=C(C(=O)O)N3C(=O)[C@@H](NC(=O)Cn4cnnn4)[C@H]3SC2)s1 [Cefazolin] |  |  |  |  |  |  |  |  |  |  |  |  |  |  | Cefazolin-CZ MIC of MRSE CAN-ICU 61589 [16]: > 32 µg/mL |
| Gentamicin [reference compound] |  |  |  |  |  |  |  |  |  |  |  |  |  |  | MIC, S. aureus ATCC29213 [1, 21]: 1 µg/mL; MIC, S. epidermidis ATCC14990 [2, 21]: 0.25 µg/mL; MIC, E. coli CAN-ICU 63074 [3, 21]: 8 µg/mL; MIC, E. coli CAN-ICU 61714 ([4]; Gentamicin resistant strain, Mueller-Hinton broth, 16-20 h at 37° C.): 128 µg/mL; MIC, E. coli ATCC25922 [5, 21]: 1 µg/mL; MIC, MRSA ATCC33592 [6, 21]: 2 µg/mL; MIC, MRSE CAN-ICU 61589 [7, 21]: 32 µg/mL; MIC, S. pneumoniae ATCC49619 ([10]; broth supplemented with laked horse blood (5% horse blood), 16-20 h at 37° C.): 4 µg/mL; MIC, P. aeruginosa CAN-ICU 62308 ([11]; Gent-R strain, Mueller-Hinton broth, 16-20 h at 37° C.): 128 µg/mL; MIC, P. aeruginosa ATCC27853 [12, 21]: 8 µg/mL; MIC, S. maltophilia CAN-ICU 62584 [13, 21]: >512 µg/mL; MIC, A. baumannii CAN-ICU 63169 [14, 21]: 128 µg/mL; MIC, S. pneumoniae ATCC13883 [17]: 0.25 µg/mL |
